Legend:
[1] = biological target: T1, human TRPA1 ion channel (Homo sapiens, UniProt O75762); assay: Assay A: TRPA1 assay (FLIPR calcium, AITC agonism); format: cell-based; settings: read-out: hTRPA1 IC50
T1 construct: host or cells: HEK293
Protocol: A human HEK293 cell line over-expressing the human TRPA1 ion channel (Perkin Elmer, Product No. AX-004-PCL) is used as a test system for compound efficacy and potency. Compound activity is determined by measuring the effect of compounds on intracellular calcium concentration induced by AITC (Allylisothiocyanat) agonism in a FLIPRtetra system (Molecular Devices).
The cells are obtained as frozen cells in cryo-vials and stored until use at −150° C.
Cells are grown in culture medium (MEM/EBSS medium with 10% FCS and 0.4 mg/ML Geneticin). […] For sub-culturing cells are detached from flasks by Versene. At the day before the assay, cells are detached, washed twice with medium (MEM/EBSS medium with 10% FCS) and 20000 cells in 20 μl/well are seeded to Poly D-Lysin biocoated 384-well plates (black, clear bottom, Cat. 356697) from Corning. Plates are incubated for 24 hours at 37° C./5% CO2 before use in the assay.
The test compounds are dissolved in 100% DMSO at a concentration of 10 mM and in a first step diluted in DMSO to a concentration of 5 mM, followed by serial dilution steps in 100% DMSO. Dilution factor and number of dilution steps may vary according to needs. Typically 8 different concentrations by 1:5 dilutions are prepared, further intermediate dilutions (1:20) of the substances are carried out with HBSS/HEPES buffer (1×HEPES, Cat. 14065 from Gibco, 20 mM HEPES, Cat. 83264 from SIGMA, 0.1% BSA Cat. 11926 from Invitrogen, pH 7.4
At the assay day cells are washed 3× with assay puffer, 20 μL buffer remaining in the wells after washing. 10 μL Ca6 kit (Cat. R8191 MolecularDevices) loading buffer in HBSS/HEPES is added to the cells and the plates are incubated with lid for 120 minutes at 37°/5% CO2. 10 μL of compound or controls in HBSS/HEPES buffer/5% DMSO from the intermediate dilution plate are carefully added to the wells. […] Finally 10 μL of the agonist AITC 50 μM dissolved in HBSS/HEPES buffer/0.05% DMSO (final concentration 10 μM) is added to the wells followed by an additional read on the FLIPRtetra device for 10 minutes. The area under the signal curve (AUC) after AITC addition is used for IC50/% inhibition calculations Data evaluation and calculation:
Each assay microtiter plate contains wells with vehicle (1% DMSO) controls instead of compound as controls for AITC induced luminescence (100% CTL; high controls) and wells with vehicle controls without AITC as controls for non-specific changes in luminescence (0% CTL; low controls).
The analysis of the data is performed by the calculation of the area under signal curve of the individual wells. Based on this values the % value for the measurement of each substance concentration is calculated (AUC(sample)−AUC(low))*100/(AUC(high)−AUC(low)) using MegaLab software (in house development). The IC50 values are calculated from the % control values using MegaLab software. Calculation: [y=(a−d)/(1+(x/c)^b)+d], a=low value, d=high value; x=conc M; c=IC50 M; b=hill; y=% ctrl

[2] = Assay B: Microsomal clearance; format: in vitro ADME, human; settings: pooled liver microsomes 1 mg/ml, test compound 1 μM, 37° C., NADPH
Protocol: Assay B: Microsomal Clearance:
The metabolic degradation of the test compound is assayed at 37° C. with pooled liver microsomes. The final incubation volume of 100 μl per time point contains TRIS buffer pH 7.6 at RT (0.1 M), magnesium chloride (5 mM), microsomal protein (1 mg/ml) and the test compound at a final concentration of 1 μM.
Following a short preincubation period at 37° C., the reactions are initiated by addition of beta-nicotinamide adenine dinucleotide phosphate, reduced form (NADPH, 1 mM) and terminated by transferring an aliquot into solvent after different time points (0, 5, 15, 30, 60 min). Additionally, the NADPH-independent degradation is monitored in incubations without NADPH, terminated at the last time point. The [%] remaining test compound after NADPH independent incubation is reflected by the parameter c(control) (metabolic stability). The quenched incubations are pelleted by centrifugation (10000 g, 5 min).
An aliquot of the supernatant is assayed by LC-MS/MS for the amount of parent compound. The half-life (t½ INVITRO) is determined by the slope of the semilogarithmic plot of the concentration-time profile.
The intrinsic clearance (CL_[…]) is calculated by considering the amount of protein in the incubation: CL_[…] [μl/min/mg protein]=(Ln 2/(half-life [min]*protein content [mg/ml]))*1000 CL_[…]_INVIVO [ml/min/kg]=(CL_[…] [μL/min/mg protein]×MPPGL [mg protein/g liver]×liver factor [g/kg bodyweight])/1000 Qh[%]=CL[ml/min/kg]/hepatic blood flow [ml/min/kg])
(§1) Hepatocellularity, human: 120×10e6 cells/g liver
(§2) Liver factor, human: 25.7 g/kg bodyweight
(§3) Blood flow, human: 21 ml/(min×kg)

[3] = Assay C: Hepatocyte clearance; format: in vitro ADME, human; settings: hepatocyte suspension, 5% species serum, test compound 1 μM, up to 6 h
Protocol: Assay C: Hepatocyte Clearance
The metabolic degradation of the test compound is assayed in a hepatocyte suspension. Hepatocytes (cryopreserved) are incubated in Dulbecco's modified eagle medium (supplemented with 3.5 μg glucagon/500 mL, 2.5 mg insulin/500 mL and 3.75 mg/500 mL hydrocortison) containing 5% species serum.
The cells are incubated for six hours (incubator, orbital shaker) and samples (25 μl) are taken at 0, 0.5, 1, 2, 4 and 6 hours. Samples are transferred into acetonitrile and pelleted by centrifugation (5 min). The supernatant is transferred to a new 96-deepwell plate, evaporated under nitrogen and resuspended.
Decline of parent compound is analyzed by HPLC-MS/MS
CLint is calculated as follows CL_[…]=Dose/AUC=(CO/CD)/(AUD+clast/k)×1000/60. C0: initial concentration in the incubation [μM], CD: cell density of vital cells [10e6 cells/mL], AUD: area under the data [μM×h], clast: concentration of last data point [μM], k: slope of the regression line for parent decline [h−1].
The calculated in vitro hepatic intrinsic clearance can be scaled up to the intrinsic in vivo hepatic Clearance and used to predict hepatic in vivo blood clearance (CL) by the use of a liver model (well stirred model). CL_[…]_INVIVO [ml/min/kg]=(CL_[…] [μL/min/10e6 cells]×hepato-cellularity [10e6 cells/g liver]×liver factor [g/kg bodyweight])/1000 CL[ml/min/kg]=CL_[…]_INVIVO [ml/min/kg]×hepatic blood flow [ml/min/kg]/(CL_[…]_INVIVO [ml/min/kg]+hepatic blood flow [ml/min/kg]) Qh[%]=CL[ml/min/kg]/hepatic blood flow [ml/min/kg])
as §1, §2, §3

T1 sequence (O75762 whole entry): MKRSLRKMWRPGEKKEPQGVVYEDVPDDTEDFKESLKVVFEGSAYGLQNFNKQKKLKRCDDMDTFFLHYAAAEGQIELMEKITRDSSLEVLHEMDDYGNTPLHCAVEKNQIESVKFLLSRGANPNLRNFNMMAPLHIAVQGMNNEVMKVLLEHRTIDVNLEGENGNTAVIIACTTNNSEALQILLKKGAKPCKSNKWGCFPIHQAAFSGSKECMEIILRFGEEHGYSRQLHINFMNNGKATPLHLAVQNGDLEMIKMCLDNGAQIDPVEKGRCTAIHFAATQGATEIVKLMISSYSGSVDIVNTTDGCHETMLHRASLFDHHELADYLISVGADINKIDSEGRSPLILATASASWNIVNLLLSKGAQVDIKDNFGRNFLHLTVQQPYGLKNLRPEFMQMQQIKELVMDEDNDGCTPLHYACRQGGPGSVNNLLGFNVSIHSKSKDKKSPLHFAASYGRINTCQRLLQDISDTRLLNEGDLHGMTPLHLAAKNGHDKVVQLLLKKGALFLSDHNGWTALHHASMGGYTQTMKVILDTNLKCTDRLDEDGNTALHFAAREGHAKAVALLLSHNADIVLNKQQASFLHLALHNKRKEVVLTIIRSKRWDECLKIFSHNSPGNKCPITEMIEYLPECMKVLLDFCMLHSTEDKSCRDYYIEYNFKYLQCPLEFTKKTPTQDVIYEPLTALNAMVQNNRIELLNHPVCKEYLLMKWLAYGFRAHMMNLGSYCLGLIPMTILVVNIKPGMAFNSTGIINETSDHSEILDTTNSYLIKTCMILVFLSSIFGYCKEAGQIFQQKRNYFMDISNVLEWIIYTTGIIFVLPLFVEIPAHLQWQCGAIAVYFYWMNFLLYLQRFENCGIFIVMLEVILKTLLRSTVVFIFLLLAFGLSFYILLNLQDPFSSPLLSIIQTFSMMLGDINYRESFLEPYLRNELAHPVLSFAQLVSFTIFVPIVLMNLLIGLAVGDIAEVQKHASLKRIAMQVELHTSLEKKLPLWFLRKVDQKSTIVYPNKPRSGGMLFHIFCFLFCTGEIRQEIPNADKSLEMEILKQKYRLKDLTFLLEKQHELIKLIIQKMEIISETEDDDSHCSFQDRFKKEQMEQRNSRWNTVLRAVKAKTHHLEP

SMILES | IC50 [1] [nM] | human LM [% Qh] [2] [% Qh] | human Hepatocytes [% Qh] [3] [% Qh]
Cn1c(=O)c(C(N)=O)cn(Cc2nc(C[C@H](O)c3ccc(Cl)cc3)no2)c1=O [Example 1, 1-({3-[(2S)-2-(4-chlorophenyl)-2-hydroxyethyl]-1,2,4-oxadiazol-5-yl}methyl)-3-methyl-2,4-dioxo-1,2,3,4-tetrahydropyrimidine-5-carboxamide] | 38 | <23 | 15
Cn1c(=O)c(C(N)=O)cn(Cc2nc(C[C@H](O)c3cc4ccccc4s3)no2)c1=O [Example 2] | 6 | <23 | 24
Cn1c(=O)c(C(N)=O)cn(Cc2nc(C[C@H](O)c3cc4ccc(F)cc4s3)no2)c1=O [Example 3] | 8 | 43 | 17
Cn1c(=O)c(C(N)=O)cn(Cc2nc(C[C@H](O)c3cc4cc(Cl)ccc4o3)no2)c1=O [Example 4] | 15 | <23 | 21

Next, values leading:

IC50 [1] [nM] | human LM [% Qh] [2] [% Qh] | human Hepatocytes [% Qh] [3] [% Qh] | SMILES
33 | <23 | 15 | Cn1c(=O)c(C(N)=O)cn(Cc2nc(C[C@H](O)c3cc4cc(F)ccc4o3)no2)c1=O [Example 5]
57 | 24 | 17 | Cn1c(=O)c(C(N)=O)cn(Cc2nc(C[C@H](O)c3ccc(I)cc3)no2)c1=O [Example 6]
84 | <23 | 8 | Cc1ccc([C@@H](O)Cc2noc(Cn3cc(C(N)=O)c(=O)n(C)c3=O)n2)cc1 [Example 7]

From patent US11858921B2, “Uracil derivatives as TRPA1 inhibitors” (Boehringer Ingelheim International GmbH, priority 2021, dated 2024)
